Measured values published in PubChem BioAssay (NCI).
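Briefly, cells in 96-well plates were exposed to five compound concentrations for 48 h, and endpoints were estimated by linear interpolation. Here, GI50 denotes the concentration required for 50% inhibition of growth. TGI marks complete inhibition of growth.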

Columns and labels:
Experiment in all cases: NCI tumour cell line growth inhibition, 48 h
[1] = tested on: A498 renal
[2] = tested on: ACHN renal
[3] = tested on: HCT-116 colon
[4] = tested on: HL-60(TB) leukemia
[5] = tested on: MCF7 breast
[6] = tested on: MDA-MB-231 breast
[7] = tested on: SK-MEL-2 melanoma
[8] = tested on: SK-OV-3 ovarian
[9] = tested on: SN12C renal
[10] = tested on: SW-620 colon

Row | Structure (SMILES) | GI50 [1] [nM] | TGI [1] [µM] | GI50 [2] [µM] | TGI [2] [µM] | GI50 [3] [µM] | TGI [3] [µM] | GI50 [4] [nM] | TGI [4] [µM] | GI50 [5] [µM] | TGI [5] [µM] | GI50 [6] [µM] | TGI [6] [µM] | GI50 [7] [µM] | TGI [7] [µM] | GI50 [8] [µM] | TGI [8] [µM] | GI50 [9] [µM] | TGI [9] [µM] | GI50 [10] [µM] | TGI [10] [µM]
1 | CN(CCCNC(=O)Cc1ccc2ccc3cccc4ccc1c2c34)CCCNc1cc(-c2ccc3ccccc3c2)nc2ccccc12 | 1660 | 3.19 | 1.42 | 2.87 | 0.333 | 1.28 | 1100 | 2.43 | 0.587 | 2.08 | 1.54 | 3.04 | 1.82 | 3.55 | 1.64 | 3.06 | 1.68 | 3.29 | 0.465 | 1.7
2 | CC(C)CNC(=O)O | – | > 100 | – | > 100 | – | > 100 | – | > 100 | – | > 100 | – | > 100 | – | > 100 | – | > 100 | – | > 100 | – | > 100
3 | CCCCC1(CN2CCOCC2)S/C(=N/c2nc(CC(=O)OCC)cs2)NC1=O (stereo not drawn) | 41500 | > 100 | 33.9 | > 100 | 22 | 63.1 | 30200 | 62.5 | 34.4 | > 100 | 25.8 | 74.2 | 29.7 | 89.2 | 25.9 | > 100 | 35.8 | > 100 | 35.9 | > 100
4 | N=C(N)SCc1cccc(-c2nc3ccccc3c(=O)o2)c1 | – | > 100 | – | > 100 | – | > 100 | – | – | – | > 100 | – | > 100 | – | > 100 | – | > 100 | – | > 100 | – | > 100
5 | O=[N+]([O-])c1ccc2c(c1)C(c1ccccc1Cl)=Nc1cn[nH]c1N2 | 8270 | > 23.3 | 14.4 | > 25 | 11.2 | > 25 | 14400 | > 25 | 10.9 | > 25 | 14.6 | > 25 | 10.7 | > 22 | 12.5 | > 25 | 19.8 | > 25 | 15.8 | > 25
6 | Cc1c(C2=C(Br)C(=O)N(C)C2=O)c(=O)n(C)c(=O)n1C | – | 82.9 | – | 94.3 | – | 40.9 | – | 41 | – | 37.1 | – | 65.3 | – | 35.2 | – | > 100 | – | > 100 | – | > 100
7 | COc1ccc2c(c1)C(C)Cc1c(ncnc1-n1c(C)nc3ccccc31)N2C (stereo not drawn) | 2150 | 9.03 | 6.56 | 23.1 | 3.46 | 16.2 | 2590 | 9.7 | 1.88 | 19.9 | 4.56 | 28.2 | 4.48 | 17.8 | 3.53 | 18.5 | 13 | 77.6 | 6.24 | 28
8 | COc1cc(C2=C(c3cn(C)c4ccccc34)COC2=O)cc(OC)c1OC | 17.1 | 0.109 | – | – | 0.0396 | – | 42.5 | 1.46 | 0.0274 | > 19.8 | 0.34 | > 100 | 0.0562 | 18.5 | 0.269 | – | 0.593 | > 100 | 0.0444 | > 100
9 | Cn1cc(C2=C(c3cn(CCCCCN)c4ccccc34)C(=O)NC2=O)c2ccccc21 | 11300 | > 25 | 10.9 | > 25 | 5.85 | > 16.7 | 6070 | 13.4 | 5.51 | > 18 | 17.1 | > 25 | 7.1 | 18.2 | 10.9 | > 25 | 9.33 | > 25 | 9.64 | > 25
10 | COc1cc2ncn(-c3cc(OCCc4ccccc4)c(C(N)=O)s3)c2cc1OC | 2430 | > 22.3 | > 25 | > 25 | 24.6 | > 25 | > 20200 | > 25 | 10.1 | > 25 | 24.6 | > 25 | > 25 | > 25 | > 25 | > 25 | 24.9 | > 25 | > 25 | > 25
11 | CC(C)OC(=O)NNc1cc(Cl)ccc1Cl | – | 96.6 | – | > 100 | – | > 100 | – | > 100 | – | > 100 | – | > 100 | – | > 100 | – | > 100 | – | > 100 | – | > 100
12 | COc1ccc(-c2c[nH]c(=S)n2-c2ccc(OC)cc2)cc1 | > 50000 | > 50 | > 50 | > 50 | > 50 | > 50 | > 50000 | > 50 | > 50 | > 50 | > 50 | > 50 | > 50 | > 50 | – | – | > 50 | > 50 | > 50 | > 50
13 | O=C(Nc1ccc(Br)cc1)c1ccc(Cl)c(Cl)c1 | 207 | 3.75 | 2.83 | > 28.6 | 2.72 | 8.07 | 2140 | 7.37 | 2.19 | > 31.4 | 3.24 | > 100 | 3.59 | > 29.8 | 3.17 | > 100 | 3.21 | > 100 | 3.59 | > 100
14 | COc1ccc(Nc2c3ccccc3nc3occ(Cl)c23)cc1 | < 10 | 0.121 | 1.44 | > 100 | < 0.01 | 3.29 | < 10 | 0.547 | < 0.01 | > 33.2 | < 0.01 | 0.0648 | – | – | 0.765 | – | 0.0858 | 19 | < 0.01 | 18.4
15 | O=C(COc1ccc(/C=C2\CSc3ccccc3C2=O)cc1)Nc1nccs1 | 15800 | 29.2 | 13.5 | 26.4 | 4.32 | 14.7 | – | – | 3.43 | 10.6 | 14.4 | 35 | 11.3 | 23.3 | 22.2 | 42.2 | 5.8 | 29.8 | 2.7 | 7.12
